Converted amounts (≈) assume the structure as drawn.
Columns and labels:
Assay type in all cases: functional
[1] = tested on: Bacteroides fragilis; test: Antimicrobial activity against Bacteroides fragilis MN5 after 24 hrs by agar dilution method; conditions: MN5, 24 h
[2] = tested on: Bacteroides fragilis; test: Antimicrobial activity against Bacteroides fragilis MN11 expressing imipenemase activity after 24 hrs by agar dilution method; conditions: MN11, 24 h
[3] = tested on: Bacteroides fragilis; test: Antimicrobial activity against Bacteroides fragilis MN32 imipenemase activity after 24 hrs by agar dilution method; conditions: MN32, 24 h
[4] = tested on: Bacteroides fragilis; test: Antimicrobial activity against Bacteroides fragilis MN35 after 24 hrs by agar dilution method; conditions: MN35, 24 h
[5] = tested on: Bacteroides fragilis; test: Antimicrobial activity against Bacteroides fragilis MN36 after 24 hrs by agar dilution method; conditions: MN36, 24 h
[6] = tested on: Bacteroides fragilis; test: Antimicrobial activity against Bacteroides fragilis MN41 after 24 hrs by agar dilution method; conditions: MN41, 24 h
[7] = tested on: Bacteroides fragilis; test: Antimicrobial activity against Bacteroides fragilis MN4a

- MIC [1]: 0.25 µg/mL (≈ 0.835 µM)
- MIC [2]: 256 µg/mL (≈ 855 µM)
- MIC [3]: 128 µg/mL (≈ 428 µM)
- MIC [4]: 0.25 µg/mL (≈ 0.835 µM)
- MIC [5]: 0.25 µg/mL (≈ 0.835 µM)
- MIC [6]: 0.25 µg/mL (≈ 0.835 µM)
- MIC [7]: 0.5 µg/mL (≈ 1.67 µM)
SMILES: C[C@@H](O)[C@H]1C(=O)N2C(C(=O)O)=C(SCCNC=N)C[C@H]12 [IMIPENEM ANHYDROUS]
